Assays:
His-hSHIP1 enzyme = molecular target: T1, His-hSHIP1 enzyme (Homo sapiens, UniProt Q92835); experiment: His-hSHIP1 activity (phosphatase assay, IP4 substrate, Biomol Green); format: biochemical; parameters: key to Scoring, Approach 2 (Initial velocity Ratio): +++: higher than reference or reference - 15%; ++: reference - 16% to reference - 30%; +: reference - 31% or lower; −: inhibitor; conditions: second approach: ratio of initial velocities IP4 25/250 μM compared with reference compound; values without asterisk
T1 construct: His
T1 sequence (Q92835 1-1189): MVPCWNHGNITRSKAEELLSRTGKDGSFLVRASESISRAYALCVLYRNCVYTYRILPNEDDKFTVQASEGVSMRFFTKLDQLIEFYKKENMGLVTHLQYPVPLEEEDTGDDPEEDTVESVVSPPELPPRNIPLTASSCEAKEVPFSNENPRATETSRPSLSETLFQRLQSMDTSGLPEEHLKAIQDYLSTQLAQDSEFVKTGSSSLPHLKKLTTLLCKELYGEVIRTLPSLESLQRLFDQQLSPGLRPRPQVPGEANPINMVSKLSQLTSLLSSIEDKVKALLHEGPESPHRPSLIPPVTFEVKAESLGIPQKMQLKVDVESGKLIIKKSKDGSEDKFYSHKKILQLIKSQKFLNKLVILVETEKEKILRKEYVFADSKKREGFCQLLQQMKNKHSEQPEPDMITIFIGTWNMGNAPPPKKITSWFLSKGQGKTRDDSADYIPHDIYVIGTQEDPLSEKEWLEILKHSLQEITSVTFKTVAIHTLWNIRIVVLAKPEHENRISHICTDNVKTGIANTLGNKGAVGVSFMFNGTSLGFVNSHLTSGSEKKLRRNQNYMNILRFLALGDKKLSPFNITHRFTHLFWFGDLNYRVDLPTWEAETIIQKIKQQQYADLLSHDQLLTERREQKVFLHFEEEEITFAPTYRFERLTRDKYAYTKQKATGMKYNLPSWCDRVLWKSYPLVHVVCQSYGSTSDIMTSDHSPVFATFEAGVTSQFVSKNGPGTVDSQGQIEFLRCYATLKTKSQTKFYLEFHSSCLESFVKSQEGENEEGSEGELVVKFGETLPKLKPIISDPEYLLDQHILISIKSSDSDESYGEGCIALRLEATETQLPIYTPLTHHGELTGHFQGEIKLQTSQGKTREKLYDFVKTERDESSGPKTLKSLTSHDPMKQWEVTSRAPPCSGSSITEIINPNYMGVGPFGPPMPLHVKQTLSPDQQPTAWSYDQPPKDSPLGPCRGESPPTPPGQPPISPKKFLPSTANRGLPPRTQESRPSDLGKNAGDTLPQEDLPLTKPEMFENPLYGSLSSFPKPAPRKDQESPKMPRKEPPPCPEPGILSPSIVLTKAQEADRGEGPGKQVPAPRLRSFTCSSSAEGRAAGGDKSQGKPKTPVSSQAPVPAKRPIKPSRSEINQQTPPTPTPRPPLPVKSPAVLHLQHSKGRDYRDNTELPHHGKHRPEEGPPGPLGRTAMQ
Experimental: Test compounds are dissolved in 95% ethanol to form stock solutions. Before screening, the stock solutions are diluted with Phosphatase Assay Buffer (20 mM Tris-HCL, 10 mM MgCl2 pH 7.5, 0.02% Tween 20) to form working assay solutions that contain 10% ethanol. The assay is carried out on 96-well microtiter plates using a modified procedure of that reported by Ong et al., Blood 110, 1942-1949, 2007 and Yang et al., Org Lett 7, 1073-1076, 2005, both of which references are incorporated herein by reference in their entirety.
Data were generated by one of two variant methods. Test compounds are screened by one of two approaches described as follows. In the first approach, each reaction contains 5 μL of His-hSHIP1 enzyme (5-20 ng), 10 μL of the substrate, 1,3,4,5-inositol tetrakisphosphate (IP4; 50 μM final), 5 μL of Phosphatase Assay Buffer, and 5 µL of test compound at various concentrations in 10% ethanol (0-300 μM final). Control blanks are also prepared by replacing His-hSHIP1 enzyme, IP4, or test compounds with Phosphatase Assay Buffer. After adding the reaction components in a 96-well microtiter plate on ice, the reaction is mixed by briefly shaking the plate vigorously. The reaction is then incubated at 37° C. for 15 min with gentle shaking followed by addition of 100 μL of Biomol Green Reagent (BIOMOL, PA, USA) to terminate the reaction. The free phosphate released from IP4 by His-hSHIP1 binds to the Biomol Green Reagent, which turns the dye to green color. After incubating the mixture for 20 min at room temperature for color development, the absorbance is read with SpectraMax Plus 96-well plate reader (Molecular Devices, Sunnyvale, Calif., USA) at a wavelength of 650 nm.
In the second approach, a master mix is prepared that contains 50 μL of His-hSHIP1 enzyme (0.4-1.6 ng/μL final), 25 μL of the substrate, IP4 (25 or 250 μM final), and 50 μL of test compound in 3.3% ethanol (100 μL final). Control blanks are also prepared by replacing His-hSHIP1 enzyme, IP4, or test compounds with Phosphate Assay Buffer. […] Each reaction component is preincubated at 37° C. for 30 min before adding to a 96-well microtiter plate. The master mix is then incubated at 37° C. At time 0, 20, and 30 min, 25 μL of the master mix is removed and transferred to a new 96-well microtiter plate, to which 100 μL of Biomol Green Reagent is added to stop the reaction. After incubating the mixture for 20 min at room temperature for color development, the absorbance is read with SpectraMax Plus 96-well plate reader at a wavelength of 650 nm. Phosphate released is plotted against time to calculate the initial velocities (i.e., slope of the graph) at each IP4 concentration. The initial velocities are baseline corrected and the ratio of initial velocities (IP425/IP4250) is calculated and used to rate the test compounds.

[1] = system: Akt phosphorylation in Molt-4 (PTEN-/SHIP1+) cells; experiment: Akt phosphorylation in lymphocytes (Western blot, IGF-1 stimulated); format: cell-based; parameters: key: +: inhibits Akt phosphorylation at 30 μM; −: no effect on Akt phosphorylation at 30 μM; conditions: 30 μM; Molt-4 (SHIP1+) cells, IGF-1 100 ng/mL
Experimental: Molt-4 (PTEN-/SHIP1+) cells are starved in serum free RPMI for overnight. In a 15 mL conical tube, 2-3 million serum starved cells (1 million cells per mL) are treated with various concentrations of test compound ([…]) for 30 min at 37° C. followed by stimulation with 100 ng/mL of IGF-1 for 1 hour at 37° C. After stimulation, cells are washed once with ice-cold DPBS and lysed with Lysis Buffer (20 mM Tris-HCl, pH 7.5, 140 mM NaCl, 1% NP-40, Complete Mini Protease Inhibitor Cocktail, 10 mM NaF, 1 mM Na3VO4, 1 mM β-glycerolphosphate) on ice for 30 min with vortexing every 10 min. Samples are then centrifuged at 13,000 rpm for 20 min, and supernatants are collected as total cell lysate samples. Protein concentration is determined using bicinchonic acid assay, and about 15 μg of total protein from each sample is loaded and separated on a 4-12% Tris-Glycine gel. After SDS-PAGE, proteins are transferred from the gel to a nitrocellulose membrane. The membrane is blocked in 5% BSA in PBS containing 0.1% Tween-20 (PBS-T) for 1 hour at room temperature before probing with primary antibodies for overnight at 4° C. The following antibodies are used: mouse anti-SHIP1 (1:500 dilution; Santa Cruz, Calif., USA), rabbit anti-phospho-Akt (Ser473) (1:1000 dilution; Cell Signaling Technologies, MA, USA), rabbit anti-Akt (1:1000; Cell Signaling Technologies, MA, USA), and rabbit anti-actin (1:2000; Cell Signaling Technologies, MA, USA). The membrane is then incubated with goat anti-rabbit or anti-mouse secondary antibodies (1:3000) for 1 hour at room temperature. Target proteins on the membrane are detected with ECL solution and exposed on a film.

| Compound | Scoring, Approach 2 (Initial velocity Ratio) (His-hSHIP1 enzyme) | Molt-4 (SHIP+): inhibition of Akt phosphorylation [1] |
| --- | --- | --- |
| CC1(C)CCC2=C1CC[C@H]([C@@]1(C)CC[C@H](O)C[C@@H]1CO)[C@H]2CNCC1CC1 [Cpd. No. 2, (1S,3S,4R)-4-((4R,5S)-4-((cyclopropylmethylamino)methyl)-1,1-dimethyl-2,3,4,5,6,7-hexahydro-1H-inden-5-yl)-3-(hydroxymethyl)-4-methylcyclohexanol] | + |  |
| CNC[C@H]1C2=C(CC[C@@H]1[C@@]1(C)CC[C@H](O)C[C@@H]1CO)C(C)(C)CC2 [Cpd. No. 5, (1S,3S,4R)-4-((4R,5S)-1,1-dimethyl-4-((methylamino)methyl)-2,3,4,5,6,7-hexahydro-1H-inden-5-yl)-3-(hydroxymethyl)-4-methylcyclohexanol] | +++ |  |
| C=C1CC[C@H]2[C@H](CC(N)=O)[C@@H]([C@@]3(C)CC[C@H](O)C[C@@H]3CO)CC[C@]12C [Cpd. No. 90, 2-((3aS,4R,5S,7aS)-5-((1R,2S,4S)-4-hydroxy-2-(hydroxymethyl)-1-methylcyclohexyl)-7a-methyl-1-methyleneoctahydro-1H-inden-4-yl)acetamide] |  | + |
| C=C1CC[C@H]2[C@H](O)[C@@H]([C@@]3(C)CC[C@H](O)C[C@@H]3CCC#N)CC[C@]12C [Cpd. No. 94, 3-((1S,2S,5S)-5-hydroxy-2-((3aR,4R,5R,7aS)-4-hydroxy-7a-methyl-1-methyleneoctahydro-1H-inden-5-yl)-2-methylcyclohexyl)propanenitrile] |  | + |
| C=C1CC[C@H]2[C@H](O)[C@@H]([C@@]3(C)CC[C@H](O)C[C@@H]3CCC(N)=O)CC[C@]12C [Cpd. No. 95, 3-((1S,2S,5S)-5-hydroxy-2-((3aR,4R,5R,7aS)-4-hydroxy-7a-methyl-1-methyleneoctahydro-1H-inden-5-yl)-2-methylcyclohexyl)propanamide] |  | + |
| C=C1CC[C@H]2[C@H](O)[C@@H]([C@@]3(C)CC[C@H](O)C[C@H]3CCC(=O)O)CC[C@]12C [Cpd. No. 97, 3-((1R,2S,5S)-5-hydroxy-2-((3aR,4R,5R,7aS)-4-hydroxy-7a-methyl-1-methyleneoctahydro-1H-inden-5-yl)-2-methylcyclohexyl)propanoic acid] |  | + |
| C=C1CC[C@H]2[C@H](C(=O)O)[C@@H]([C@@]3(C)CC[C@H](O)C[C@H]3CO)CC[C@]12C [Cpd. No. 98, (3aS,4R,5S,7aS)-5-((1R,2R,4S)-4-hydroxy-2-(hydroxymethyl)-1-methylcyclohexyl)-7a-methyl-1-methyleneoctahydro-1H-indene-4-carboxylic acid] |  | + |

Second part, led by results:

| Scoring, Approach 2 (Initial velocity Ratio) (His-hSHIP1 enzyme) | Compound | Molt-4 (SHIP+): inhibition of Akt phosphorylation [1] |
| --- | --- | --- |
| + | CC(=O)NC[C@H]1C2=C(CC[C@@H]1[C@@]1(C)CC[C@H](O)C[C@@H]1CO)C(C)(C)CC2 [Cpd. No. 4, N-(((4R,5S)-5-((1R,2S,4S)-4-hydroxy-2-(hydroxymethyl)-1-methylcyclohexyl)-1,1-dimethyl-2,3,4,5,6,7-hexahydro-1H-inden-4-yl)methyl)acetamide] |  |
| + | CC1(C)CCC2=C1CC[C@H]([C@@]1(C)CC[C@H](O)C[C@@H]1CO)[C@H]2CNS(C)(=O)=O [Cpd. No. 7, N-(((4R,5S)-5-((1R,2S,4S)-4-hydroxy-2-(hydroxymethyl)-1-methylcyclohexyl)-1,1-dimethyl-2,3,4,5,6,7-hexahydro-1H-inden-4-yl)methyl)methanesulfonamide] |  |
| + | CC1(C)CCC2=C1CC[C@H]([C@@]1(C)CC[C@H](O)C[C@@H]1CO)[C@H]2CNC(=O)c1ccccc1 [Cpd. No. 8, N-(((4R,5S)-5-((1R,2S,4S)-4-hydroxy-2-(hydroxymethyl)-1-methylcyclohexyl)-1,1-dimethyl-2,3,4,5,6,7-hexahydro-1H-inden-4-yl)methyl)benzamide] |  |
| − | C=C1CC[C@H]2[C@H](CNCc3ccc(F)cc3)[C@@H]([C@@]3(C)CC[C@H](O)C[C@@H]3CO)CC[C@]12C [Cpd. No. 10, (1S,3S,4R)-4-((3aS,4R,5S,7aS)-4-((4-fluorobenzylamino)methyl)-7a-methyl-1-methyleneoctahydro-1H-inden-5-yl)-3-(hydroxymethyl)-4-methylcyclohexanol] |  |
| ++ | C=C1CC[C@H]2[C@H](CNCc3ccccc3C)[C@@H]([C@@]3(C)CC[C@H](O)C[C@@H]3CO)CC[C@]12C [Cpd. No. 15, (1S,3S,4R)-3-(hydroxymethyl)-4-methyl-4-((3aS,4R,5S,7aS)-7a-methyl-4-((2-methylbenzylamino)methyl)-1-methyleneoctahydro-1H-inden-5-yl)cyclohexanol] |  |
